{"source": "patent US20120093809A1", "about": "“USE OF ALKANOYL L-CARNITINE IN COMBINATION WITH CHEMOTHERAPEUTIC AGENTS FOR THE TREATMENT OF NEOPLASMS” (priority 2008, published 2012)", "key": {"[1]": {"system": "A2780/Dx multidrug-resistant ovarian carcinoma", "description": "A2780/Dx cancer cells were injected subcutaneously (s.c.) in the right flank of CD1 nude mice (5×10^6/100 μL/mouse). Treatments started eleven days after cancer injection.\nMice were subdivided (10 mice/group) in the following experimental groups: doxorubicin was given intravenously according to the schedule q7dx3 and acetyl-L-carnitine according to the schedule qdx5/wx3w.\nAcetyl L-carnitine was administered immediately before the agent given in combination.\nTo evaluate the anticancer activity, tumor diameters were measured with a Vernier caliper. The formula TV (mm^3)=[length (mm)×width (mm)^2]/2 was used, where the width and the length are the shortest and the longest diameters of each cancer, respectively. Efficacy of the molecule was evaluated as tumor volume inhibition (TVI %) according to the equation: % TVI=100-[(mean cancer weight of treated mice/mean cancer weight of control group)×100]. and Log10 cell kill (LCK) calculated by the formula LCK=(T−C)/3.32×DT, where T and C were the mean times (days) required for treated (T) and control (C) tumors, respectively, to reach 1 cm^3, and DT was the doubling time of control tumors. When tumors reached a volume of about 2 cm^3, mice were sacrificed by cervical dislocation."}, "[2]": {"system": "NCI-H460 non-small cell lung carcinoma", "assay": "Antitumor effect of carboplatin with and without acetyl L-carnitine, s.c. xenograft", "experimental": "Treatments started three days after cancer injection. Mice were subdivided (8 mice/group) in the following experimental groups: vehicle receiving only sterile water, carboplatin 40 mg/kg, i.p. q4d/wx3w; acetyl L-carnitine (200 mg/kg po, qdx5/wx3w)+carboplatin.\nBody weight recording was carried out through the study."}, "[3]": {"system": "NCI-H460 non-small cell lung carcinoma", "assay": "Antitumor activity of cisplatin in combination with L-carnitine, s.c. xenograft", "format": "in vivo", "conditions": "L-carnitine 200 mg/kg po given chronically", "experimental": "Treatments started three days after tumor injection.\nTo evaluate the antitumor activity, tumor diameters were measured with a Vernier caliper.\nWhen tumors reached a volume of 1-2 cm^3, mice were sacrificed by cervical dislocation. Body weight recording was carried out through the study and mortality was noted."}, "tumour growth": {"system": "tumour growth", "conditions": "WO/2000/06134, cited from earlier work"}, "[4]": {"system": "A2780/Dx multidrug-resistant ovarian carcinoma cells", "assay": "Antiproliferative activity of cisplatin with and without acetyl L-carnitine, MTT assay", "format": "cell-based", "experimental": "(§1) Moreover, the activity was also evaluated on two prostate tumor cell lines with p53 wild-type (LnCaP) or p53 null (PC3). […] The number of surviving cells was finally determined by the tetrazolium salt (MTT) assay, as described by Hansen M B et al. (Re-examination and further development of a precise and rapid dye method for measuring cell growth/cell kill. J. Immunol. Methods 119: 203-10, 1989). […] In this case the statistical comparison was performed by Mann-Whitney test.\n(§2) To test the effects of the compounds on cell growth, tumor cells were seeded in 96-well tissue culture plates at approximately 10% confluence and were allowed to attach and recover for at least 24 h. […] Plates were kept at. 37° C. in incubator with 5% CO2 for 2 h for the formation of blu chrystals. The supernatant was removed and 100 μL/well of lysant medium were added. Plates were kept under stirring for 60 min. The survival cell was determined as optical density by a Multiskan spectrofluorimeter at 570 nm."}, "[5]": {"system": "NCI-H460 non-small cell lung carcinoma cells", "assay": "Antiproliferative activity of cisplatin with and without acetyl L-carnitine, MTT assay", "format": "cell-based", "experimental": "as §1, §2"}, "[6]": {"system": "LnCaP prostate carcinoma cells (p53 wild-type)", "assay": "Antiproliferative activity of cisplatin with and without acetyl L-carnitine, MTT assay", "format": "cell-based", "conditions": "acetyl L-carnitine 10 mM; ≧72 h of exposure; 0.1% FBS", "experimental": "as §1\n(§3) To test the effects of the compounds on cell growth, tumor cells were seeded in 96-well tissue culture plates at approximately 10% confluence and were allowed to attach and recover for at least 24 h. Tumor cells were exposed to compounds for 72 h or 6 days in 0.1% FBS at 37° C., then medium culture was removed and 100 μL/well of medium were added containing 25 μL/well of a solution 5 mg/mL MTT (final 1 mg/mL). Plates were kept at. 37° C. in incubator with 5% CO2 for 2 h for the formation of blu chrystals. The supernatant was removed and 100 μL/well of lysant medium were added. Plates were kept under stirring for 60 min. The survival cell was determined as optical density by a Multiskan spectrofluorimeter at 570 nm."}, "[7]": {"system": "NCI-H1650 non-small cell lung carcinoma cells", "assay": "Antiproliferative activity of cisplatin with and without acetyl L-carnitine, MTT assay", "format": "cell-based", "experimental": "as §1, §3"}, "[8]": {"system": "SJSA-1 (with amplification of mdm2) osteosarcoma cells", "assay": "Antiproliferative activity of cisplatin with and without acetyl L-carnitine, MTT assay", "format": "cell-based", "experimental": "as §1, §3"}, "lung metastases [9]": {"system": "lung metastases", "conditions": "WO/2000/06134; ALC orally 100 mg/kg; cited from earlier work"}, "lung metastases [10]": {"system": "lung metastases", "conditions": "ALC 100 mg/kg/day p.o.; cited from earlier work"}, "[11]": {"conditions": "day +24, doxorubicin 6 mg/kg iv, alone or with acetyl L-carnitine 200 mg/kg po"}, "[12]": {"conditions": "day +31, carboplatin 40 mg/kg ip q4d/wx3w, alone or with acetyl L-carnitine 200 mg/kg po qdx5/wx3w"}, "[13]": {"conditions": "acetyl L-carnitine 1 mM, same schedule and serum conditions"}, "[14]": {"conditions": "acetyl L-carnitine 10 mM, 72 h, medium with 10% FBS"}, "[15]": {"conditions": "acetyl L-carnitine 10 mM, ≧72 h of exposure, 0.1% FBS"}}}
{"smiles": "COc1cccc2c1C(=O)c1c(O)c3c(c(O)c1C2=O)C[C@@](O)(C(=O)CO)C[C@@H]3O[C@H]1C[C@H](N)[C@H](O)[C@H](C)O1", "note": "[Doxorubicin, doxorubicin]", "values": [{"measurement": "LCK (1 cm^3)", "setting": "[1]; DT = 2.9 days, doxorubicin 6 mg/kg iv, alone or with acetyl L-carnitine 200 mg/kg po", "value": 0.7}, {"measurement": "TV ± SE +24", "setting": "[1]; [11]", "value": "1059 ± 195", "unit": "mm^3"}, {"measurement": "TVI % ± SE +24", "setting": "[1]; [11]", "value": "**60 ± 11%"}, {"measurement": "Leth.", "setting": "[1]; dead/total mice, doxorubicin 6 mg/kg iv, alone or with acetyl L-carnitine 200 mg/kg po", "value": "0/10"}, {"measurement": "BWL % max", "setting": "[1]; doxorubicin 6 mg/kg iv q7dx3, alone or with acetyl L-carnitine 200 mg/kg po qdx5/wx3w", "value": 0, "unit": "%"}]}
{"smiles": "N.N.O=C([O-])C1(C(=O)[O-])CCC1.[Pt+2]", "note": "[CARBOPLATIN, Carboplatin]", "values": [{"measurement": "LCK (1 cm^3)", "setting": "[2]; Log10 cell kill, DT = 3.6 days, carboplatin 40 mg/kg ip, alone or with acetyl L-carnitine 200 mg/kg po", "value": 0.66}, {"measurement": "BWL %", "setting": "[2]; carboplatin 40 mg/kg ip q4d/wx3w, alone or with acetyl L-carnitine 200 mg/kg po qdx5/wx3w", "value": 1, "unit": "%"}, {"measurement": "TV ± SE +31", "setting": "[2]; [12]", "value": "*704 ± 254 mm^3"}, {"measurement": "TVI % +31", "setting": "[2]; [12]", "value": 48, "unit": "%"}, {"measurement": "TVI % +31", "setting": "[2]; day +31, carboplatin 40 mg/kg ip q4d/wx3w, alone or with acetyl L-carnitine 200 mg/kg po qdx5/wx3w, listed as carboplatin", "value": "about 48%"}, {"measurement": "LETHAL", "setting": "[2]; dead/total mice, carboplatin 40 mg/kg ip q4d/wx3w, alone or with acetyl L-carnitine 200 mg/kg po qdx5/wx3w", "value": "0/8"}]}
{"smiles": "C[N+](C)(C)C[C@H](O)CC(=O)[O-]", "note": "[L-carnitine]", "values": [{"measurement": "potentiation of the cytotoxic activity of cisplatin", "setting": "[3]", "value": "not able to potentiate the cytotoxic activity of cisplatin"}]}
{"smiles": "CC(=O)O[C@H]1C(=O)[C@@]2(C)[C@H]([C@H](OC(=O)c3ccccc3)[C@]3(O)C[C@H](OC(=O)[C@H](O)[C@@H](NC(=O)c4ccccc4)c4ccccc4)C(C)=C1C3(C)C)[C@]1(OC(C)=O)CO[C@@H]1C[C@@H]2O", "note": "[Paclitaxel]", "values": [{"measurement": "TVI", "setting": "tumour growth; ALC orally 100 mg/kg where combined", "value": 88, "unit": "%"}]}
{"smiles": "CC(=O)O[C@H](CC(=O)[O-])C[N+](C)(C)C", "note": "[acetyl L-carnitine]", "values": [{"measurement": "potentiation of the cytotoxic activity of cisplatin", "setting": "[4]; [13]", "value": "ineffective"}, {"measurement": "potentiation of the cytotoxic activity of cisplatin", "setting": "[4]; [14]", "value": "failed to increase cisplatin anti-proliferative activity"}, {"measurement": "potentiation of the cytotoxic activity of cisplatin", "setting": "[4]; [15]", "value": "able to potentiate the cytotoxic activity of cisplatin"}, {"measurement": "potentiation of the cytotoxic activity of cisplatin", "setting": "[5]; [13]", "value": "ineffective"}, {"measurement": "potentiation of the cytotoxic activity of cisplatin", "setting": "[5]; [14]", "value": "failed to increase cisplatin anti-proliferative activity"}, {"measurement": "potentiation of the cytotoxic activity of cisplatin", "setting": "[5]; [15]", "value": "able to potentiate the cytotoxic activity of cisplatin"}, {"measurement": "potentiation of the cytotoxic activity of cisplatin", "setting": "[6]", "value": "able to potentiate the cytotoxic activity of cisplatin"}, {"measurement": "potentiation of the cytotoxic activity of cisplatin", "setting": "[7]; [13]", "value": "ineffective"}, {"measurement": "potentiation of the cytotoxic activity of cisplatin", "setting": "[7]; [14]", "value": "failed to increase cisplatin anti-proliferative activity"}, {"measurement": "potentiation of the cytotoxic activity of cisplatin", "setting": "[7]; [15]", "value": "able to potentiate the cytotoxic activity of cisplatin"}, {"measurement": "potentiation of the cytotoxic activity of cisplatin", "setting": "[8]; [13]", "value": "ineffective"}, {"measurement": "potentiation of the cytotoxic activity of cisplatin", "setting": "[8]; [14]", "value": "failed to increase cisplatin anti-proliferative activity"}, {"measurement": "potentiation of the cytotoxic activity of cisplatin", "setting": "[8]; acetyl L-carnitine 10 mM, 72 h of exposure, 0.1% FBS", "value": "able to potentiate the cytotoxic activity of cisplatin"}, {"measurement": "effect on tumour growth", "setting": "tumour growth; ALC orally 100 mg/kg", "value": "no effect on tumour growth"}, {"measurement": "effect on the formation of lung metastases", "setting": "lung metastases [9]", "value": "significant inhibitory effect on the formation of lung metastases"}, {"measurement": "protection from toxicity of the antitumor drug", "setting": "lung metastases [10]", "value": "protects the mice from the lethal toxicity and from the neurotoxicity"}]}
